One molecule from ChEMBL document CHEMBL1201862, “PubChem BioAssay data set” (2004) can be followed below.

The target in one assay is T1, Exodeoxyribonuclease V (Escherichia coli (strain K12), UniProt P04993+P07648+P08394).
T1 sequence (P04993 whole entry): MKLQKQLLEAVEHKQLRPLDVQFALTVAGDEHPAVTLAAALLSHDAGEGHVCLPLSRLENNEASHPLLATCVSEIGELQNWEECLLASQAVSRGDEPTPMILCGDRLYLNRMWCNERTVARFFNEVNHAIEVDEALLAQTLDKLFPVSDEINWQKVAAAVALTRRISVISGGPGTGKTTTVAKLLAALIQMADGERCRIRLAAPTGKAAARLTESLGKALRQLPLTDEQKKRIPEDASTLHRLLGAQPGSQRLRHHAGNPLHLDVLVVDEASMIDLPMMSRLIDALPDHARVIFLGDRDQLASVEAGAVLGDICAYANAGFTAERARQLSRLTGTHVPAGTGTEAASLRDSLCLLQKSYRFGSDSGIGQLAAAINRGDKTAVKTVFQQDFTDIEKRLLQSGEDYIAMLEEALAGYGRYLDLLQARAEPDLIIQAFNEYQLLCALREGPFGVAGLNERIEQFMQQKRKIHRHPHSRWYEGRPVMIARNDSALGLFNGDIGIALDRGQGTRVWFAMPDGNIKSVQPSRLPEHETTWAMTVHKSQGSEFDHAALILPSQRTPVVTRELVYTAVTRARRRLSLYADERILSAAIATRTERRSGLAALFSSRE
T1 sequence (P07648 whole entry): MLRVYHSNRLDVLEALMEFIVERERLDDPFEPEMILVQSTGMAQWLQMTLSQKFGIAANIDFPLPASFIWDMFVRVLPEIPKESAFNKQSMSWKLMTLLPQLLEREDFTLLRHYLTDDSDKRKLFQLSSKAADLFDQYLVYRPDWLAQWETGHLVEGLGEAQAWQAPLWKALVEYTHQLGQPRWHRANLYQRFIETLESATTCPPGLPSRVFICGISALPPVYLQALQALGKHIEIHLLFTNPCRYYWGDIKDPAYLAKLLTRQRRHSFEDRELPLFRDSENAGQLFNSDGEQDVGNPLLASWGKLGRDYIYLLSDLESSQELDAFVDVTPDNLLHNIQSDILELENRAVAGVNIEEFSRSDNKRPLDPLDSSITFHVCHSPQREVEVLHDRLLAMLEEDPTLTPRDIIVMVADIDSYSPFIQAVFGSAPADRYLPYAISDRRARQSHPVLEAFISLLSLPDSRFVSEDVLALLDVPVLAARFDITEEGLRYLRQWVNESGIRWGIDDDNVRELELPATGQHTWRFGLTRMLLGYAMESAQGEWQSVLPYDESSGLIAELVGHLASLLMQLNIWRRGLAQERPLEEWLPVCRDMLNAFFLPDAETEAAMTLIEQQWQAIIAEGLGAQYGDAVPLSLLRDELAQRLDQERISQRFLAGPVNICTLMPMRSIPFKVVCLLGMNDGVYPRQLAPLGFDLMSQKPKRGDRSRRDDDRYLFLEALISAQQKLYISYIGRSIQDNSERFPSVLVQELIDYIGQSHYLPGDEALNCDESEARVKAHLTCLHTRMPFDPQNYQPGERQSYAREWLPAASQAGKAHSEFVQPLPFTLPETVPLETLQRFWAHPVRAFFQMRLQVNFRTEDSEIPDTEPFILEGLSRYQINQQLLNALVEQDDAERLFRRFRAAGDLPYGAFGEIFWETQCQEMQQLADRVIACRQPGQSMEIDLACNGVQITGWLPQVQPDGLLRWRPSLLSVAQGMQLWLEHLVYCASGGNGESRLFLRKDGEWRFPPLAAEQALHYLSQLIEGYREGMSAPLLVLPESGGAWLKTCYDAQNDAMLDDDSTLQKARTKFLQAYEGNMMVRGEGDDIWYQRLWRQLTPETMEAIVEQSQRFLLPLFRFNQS
T1 sequence (P08394 whole entry): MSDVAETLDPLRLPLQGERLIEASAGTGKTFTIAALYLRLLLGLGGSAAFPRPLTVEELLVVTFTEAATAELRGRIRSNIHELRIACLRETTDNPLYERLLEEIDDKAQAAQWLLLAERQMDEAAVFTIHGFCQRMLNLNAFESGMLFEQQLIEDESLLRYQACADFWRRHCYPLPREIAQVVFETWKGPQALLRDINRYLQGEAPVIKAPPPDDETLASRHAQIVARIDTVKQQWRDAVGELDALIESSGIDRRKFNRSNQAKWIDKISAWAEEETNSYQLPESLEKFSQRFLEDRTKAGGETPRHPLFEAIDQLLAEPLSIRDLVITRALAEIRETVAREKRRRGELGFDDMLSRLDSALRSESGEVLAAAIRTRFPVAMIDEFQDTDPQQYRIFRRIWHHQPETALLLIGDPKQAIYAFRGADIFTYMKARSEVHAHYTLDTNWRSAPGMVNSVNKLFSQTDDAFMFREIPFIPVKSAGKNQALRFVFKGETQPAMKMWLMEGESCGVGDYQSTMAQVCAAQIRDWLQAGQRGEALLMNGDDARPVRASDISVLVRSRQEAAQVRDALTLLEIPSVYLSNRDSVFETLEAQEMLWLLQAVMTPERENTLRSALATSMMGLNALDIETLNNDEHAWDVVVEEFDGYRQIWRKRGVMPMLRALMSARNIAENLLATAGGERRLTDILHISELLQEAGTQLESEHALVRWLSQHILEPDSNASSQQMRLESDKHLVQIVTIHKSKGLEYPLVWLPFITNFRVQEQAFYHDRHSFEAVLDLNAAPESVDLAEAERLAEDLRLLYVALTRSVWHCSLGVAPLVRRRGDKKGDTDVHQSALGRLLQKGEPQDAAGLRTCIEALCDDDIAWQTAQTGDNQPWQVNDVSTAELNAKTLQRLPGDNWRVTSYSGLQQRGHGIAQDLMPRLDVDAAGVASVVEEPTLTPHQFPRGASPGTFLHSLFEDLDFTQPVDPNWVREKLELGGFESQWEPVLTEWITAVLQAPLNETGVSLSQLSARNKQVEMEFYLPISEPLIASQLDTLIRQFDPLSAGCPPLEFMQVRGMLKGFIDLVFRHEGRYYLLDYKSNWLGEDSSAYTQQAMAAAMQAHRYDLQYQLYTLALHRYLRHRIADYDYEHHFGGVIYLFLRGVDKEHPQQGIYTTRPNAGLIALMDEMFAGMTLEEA
As to the kind of experiment: RecBCD inhibition via phage-restricted bacterial growth – absorbance, V66 E. coli, mutant T4 phage, counter-screen for AddAB inhibitor project, dose response (AID 492957). It is filed as functional, cell-based, Escherichia coli str. K-12 substr. MG1655.

Assay [1] is described as follows: NIH-3T3 fibroblast cytotoxicity, dose response, cytotoxicity control, cell-based, fluorescence, Alamar Blue, secondary assay (AID 2327).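 Further: NIH-3T3 mouse fibroblasts cultured with fluconazole at 8 µg/mL.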 It is filed as functional.
The nature of assay [2]: fluconazole-exposed Candida albicans growth modulators – fluorescence, retest, confirmation (AID 2467). It is filed as functional, cell-based.

The structures appear in SMILES notation. The source made the active and inactive calls. For most assays here, no stated cut-off is given here; in the data, actives have a measured EC50 and inactives only a lower limit.

With `CN1CCc2cc3c(c4c2[C@H]1[C@H](O)c1ccccc1-4)OCO3`, the IC50 at Exodeoxyribonuclease V is > 119 µM (inactive). Besides, the values for the EC50 in assay [1] and in assay [2] were 75.6 µM (active) and 2.74 µM (active), respectively.
